Assays:
human limbal explant = experiment: Limbal explant outgrowth culture: outgrowth proliferation, area, cell yield, cell density; assay type: cell-based; details: for stained outgrowth area / cell yields: 10 μM IWP2 or 3 μM CHIR99021; for stained outgrowth area: Commassie blue R 250 staining, compared with control (FIG. 2a, 2b); for cell yields: trypan blue, hemocytometer, compared with normal control (FIG. 2c); for outgrowth proliferation rates of the explant: 10 μM IWP2 or 3 μM CHIR99021 in medium, phase contrast microscope, day 4 and 8, compared with control (FIG. 1); for Cell count, Mean: Explant culture, Table 1
Procedure: The corneal limbal tissue satisfying the above-described conditions was splitted into […] using a surgical instrument on a horizontal sterile-air-flow hood, and the conjunctival edge of each quarter was immersed shortly in 1% trypan blue (Sigma, USA) to stain conjunctival stroma, and all remnants of conjunctiva were carefully removed using conjunctival scissors. Afterward, a sclera tissue was trimmed away, and then each limbal strip was prepared after being cut to a thickness of 0.5 mm using a sharp blade. First, a 0.4-μm pore polyester membrane insert (Costar, NY) with a diameter of 25 mm was put into a 6-well plate, and pre-equilibrated overnight cultured in a supplemented hormonal epithelial medium (SHEM). The SHEM was composed of 950 ml of Dulbecco's modified minimal essential medium (DMEM)/F-12 medium in which DMEM and Ham F12 are mixed in a ratio of 1:1, 50 ml of fetal bovine serum (FBS), 5 ng of a human recombinant epidermal growth factor (EGF), 28 mg of phosphoethanolamine, lx insulin-transferrin-selenium (ITS, Gibco), and 1× penicillin-streptomycin (Gibco). Afterward, the limbal tissue cut into 8 sections with a length of 4 mm according to the method described in Example 1-1 was put on a polyester membrane to dispose an epithelial part face-up, and cultured under an air-liquid interface condition. After 72 hours of culturing, the presence of an encircling island of outgrowth cells were confirmed, and then the medium was replaced with a fresh medium that just covered a surface of the explant, every 72 hours. Here, the cells were cultured with 10 μM of the Wnt inhibitor (IWP2) or 3 μM of the GSK3 inhibitor (CHIR99021), and then experiments that will be described below were performed. To identify effects of the Wnt/β-catenin signaling on the limbal explant outgrowth cultures, cells were cultured by adding 10 μM of the Wnt inhibitor IWP2 or 3 μM of the Wnt signaling agonist CHIR99021 as a GSK3 inhibitor to a medium under the culture conditions for a human limbal explant cultures according to the methods described in Examples 1-1 and 1-2, and explant outgrowth proliferation was observed using a phase contrast microscope on day 4 and 8. […] In addition, cells were harvested by treating the limbal explant cultures with trypsin, stained with a 0.4% trypan blue solution, and cell yields were measured using a hemocytometer and then cell densities were quantitatively analyzed.

[1] = system: limbal stem cells (LSCs) in limbal explant outgrowth cultures; experiment: Flow cytometry of JC1 low side population in limbal explant outgrowth cultures; assay type: cell-based, human; details: for % JC1^low, Mean: Explant culture, Table 1; for JC1 exclusion cell cohort (JC1^low) / percentage in a lower left quadrant (LLQ): limbal explant culture; for JC1 exclusion cell cohort (JC1^low): 10 μM IWP2 or 3 μM CHIR99021 (FIG. 3); for percentage in a lower left quadrant (LLQ): 10 μM IWP2 or 3 μM CHIR99021, FSC/SSC, stem/precursor somatic cells (FIG. 3)
Procedure: First, a 0.4-μm pore polyester membrane insert (Costar, NY) with a diameter of 25 mm was put into a 6-well plate, and pre-equilibrated overnight cultured in a supplemented hormonal epithelial medium (SHEM). The SHEM was composed of 950 ml of Dulbecco's modified minimal essential medium (DMEM)/F-12 medium in which DMEM and Ham F12 are mixed in a ratio of 1:1, 50 ml of fetal bovine serum (FBS), 5 ng of a human recombinant epidermal growth factor (EGF), 28 mg of phosphoethanolamine, lx insulin-transferrin-selenium (ITS, Gibco), and 1× penicillin-streptomycin (Gibco). […] After 72 hours of culturing, the presence of an encircling island of outgrowth cells were confirmed, and then the medium was replaced with a fresh medium that just covered a surface of the explant, every 72 hours. Here, the cells were cultured with 10 μM of the Wnt inhibitor (IWP2) or 3 μM of the GSK3 inhibitor (CHIR99021), and then experiments that will be described below were performed. In order to determine a relative cell size and ABCG2 efflux activity, cells from limal explant outgrowth cultures were harvested by treatment with trypsin, the collected cells were seeded in 6-well plates at a cell density of 2×10^4/well, treated with 250 nM JC1 dye and incubated for 45 minutes. Afterward, the cells were detached again by trypsin treatment and diluted with FACS buffer to perform FACS analysis. JC1 is a dye binding to mitochondria in cells, efflux of the JC1 dye from cells in a side population strongly expressing ATP-binding cassette sub-family G member 2 (ABCG2) results in inhibition of mitochondria staining. Therefore, flow cytometry was performed on the cells treated with the JC1 dye using a FACS Calibur (BD Biosciences) at an emission wavelength of 531(green)/585(orange), and the side population (JC1^low) that was not stained with JC1 was measured.

[2] = system: LSC markers p63α and ABCG2, differentiation marker Krt3; experiment: Western blot of LSC markers and differentiation marker in limbal explant outgrowth cells; assay type: cell-based, human; details: for expression of the differentiation marker Krt3: western blot (FIG. 4); for protein expression of LSC marker ABCG2 / protein expression of LSC marker p63α: western blot, compared with control (FIG. 4)
Procedure: First, a 0.4-μm pore polyester membrane insert (Costar, NY) with a diameter of 25 mm was put into a 6-well plate, and pre-equilibrated overnight cultured in a supplemented hormonal epithelial medium (SHEM). The SHEM was composed of 950 ml of Dulbecco's modified minimal essential medium (DMEM)/F-12 medium in which DMEM and Ham F12 are mixed in a ratio of 1:1, 50 ml of fetal bovine serum (FBS), 5 ng of a human recombinant epidermal growth factor (EGF), 28 mg of phosphoethanolamine, lx insulin-transferrin-selenium (ITS, Gibco), and 1× penicillin-streptomycin (Gibco). Afterward, the limbal tissue cut into 8 sections with a length of 4 mm according to the method described in Example 1-1 was put on a polyester membrane to dispose an epithelial part face-up, and cultured under an air-liquid interface condition. After 72 hours of culturing, the presence of an encircling island of outgrowth cells were confirmed, and then the medium was replaced with a fresh medium that just covered a surface of the explant, every 72 hours. Here, the cells were cultured with 10 μM of the Wnt inhibitor (IWP2) or 3 μM of the GSK3 inhibitor (CHIR99021), and then experiments that will be described below were performed. Limbal explant outgrowth cells were washed with PBS, and lysed with a lysis buffer containing phosphatase inhibitor cocktail 2 (Sigma-Aldrich) and protease inhibitor cocktail (Roche Diagnostics). A lysate was boiled with a sample-loading buffer for 10 minutes and then centrifuged, resulting in isolation of a supernatant containing proteins in the cells, and a protein concentration was quantified using a BCA Protein Assay kit (Thermo Fisher Scientific, Rockford, Ill.). Afterward, equal amounts of protein in cell lysates were separated by 10% SDS-polyacrylamide gel electrophoresis (SDS-PAGE) under reducing conditions and electro-transferred to a PVDF membrane (Millipore, Billerica, Mass.). Afterward, The membrane was blocked with 5% skim milk in PBS containing 0.1% Tween 20, incubated at 4° C. for 18 h with primary mouse monoclonal antibodies (Abs) recognizing, β-catenin (BD Biosciences), ABCG2 (Abcam), Krt3 (Abcam) or a rabbit polyclonal antibody recognizing p63α (Abcam). After the washes, the membrane was incubated with a horseradish peroxidase-binding anti-mouse or anti-rabbit secondary antibody at room temperature for 1 hour. The membrane incubating with the secondary antibody was washed with 0.1% Tween 20-added PBS three times, treated with an ECL solution (Amersham Biosciences, Sweden) as a chemiluminescence reagent and developed, thereby analyzing an expression level of a protein to be observed. Also, to correct protein levels of the samples, a mouse monoclonal anti-β-actin primary antibody reacted with the membrane, and subsequent procedures were the same as described above. To identify effects of the Wnt/β-catenin signaling on LSC differentiation during the limbal explant culture, expression levels of the LSC markers p63α and ABCG2, and the differentiation marker Krt3 protein in the explant outgrowth cells were detected by western blot analysis according to the method described in Example 1-5.

[3] = system: limbal explant outgrowth cells; experiment: Colony forming efficiency assay of cells harvested from explant outgrowth cultures; assay type: cell-based, human; details: cells from treated limbal explant outgrowth; cultured up to day 14; compared with control (FIG. 5)
Procedure: First, a 0.4-μm pore polyester membrane insert (Costar, NY) with a diameter of 25 mm was put into a 6-well plate, and pre-equilibrated overnight cultured in a supplemented hormonal epithelial medium (SHEM). The SHEM was composed of 950 ml of Dulbecco's modified minimal essential medium (DMEM)/F-12 medium in which DMEM and Ham F12 are mixed in a ratio of 1:1, 50 ml of fetal bovine serum (FBS), 5 ng of a human recombinant epidermal growth factor (EGF), 28 mg of phosphoethanolamine, lx insulin-transferrin-selenium (ITS, Gibco), and 1× penicillin-streptomycin (Gibco). […] After 72 hours of culturing, the presence of an encircling island of outgrowth cells were confirmed, and then the medium was replaced with a fresh medium that just covered a surface of the explant, every 72 hours. Here, the cells were cultured with 10 μM of the Wnt inhibitor (IWP2) or 3 μM of the GSK3 inhibitor (CHIR99021), and then experiments that will be described below were performed.

[4] = system: human limbal epithelial cells; experiment: Flow cytometry of JC1 low ratio in isolated limbal epithelial cell (single cell) culture; assay type: cell-based; details: Table 1
Procedure: (§1) The limbal tissue divided according to the method described in Example 1-1 was treated with 2 mg/ml Dispase II (Roche, Indianapolis, Ind.) diluted with keratinocyte medium (KSFM; Invitrogen, Carlsbad, Calif.) and overnight cultured at 4° C. Afterward, a limbal epithelium layer was gently sloughed off from its stromal base under the dissecting microscope, the epithelium layer was treated with TrypLE (GIBCO, Denmark) and cultured for 10 minutes, and then triturated with a pipette to generate a single cell suspension. These cells were seeded into a 25T flask coated with human type I collagen (PureCol^R, Biomatrix, SanDiego, Calif.) to be dispensed at a density of 2×10^5 cells/flask, and cultured in Cnt50 medium (Cell-N-Tec, Bern, Switzerland) complemented with bovine pituitary extract for up to 2 weeks.
In order to determine a relative cell size and ABCG2 efflux activity, cells from limal explant outgrowth cultures were harvested by treatment with trypsin, the collected cells were seeded in 6-well plates at a cell density of 2×10^4/well, treated with 250 nM JC1 dye and incubated for 45 minutes. […] Therefore, flow cytometry was performed on the cells treated with the JC1 dye using a FACS Calibur (BD Biosciences) at an emission wavelength of 531(green)/585(orange), and the side population (JC1^low) that was not stained with JC1 was measured. […]

[5] = system: human limbal epithelial cells; experiment: Viable cell count / cell yield in isolated limbal epithelial cell (single cell) culture; assay type: cell-based; details: for Cell count, Mean: Epithelial cells (single cell culture), Table 1
Procedure: as §1
According to Examples 2 to 4, it was identified that, in the limbal explant culture, the Wnt/β-catenin signaling is involved in the stimulation of explant outgrowth proliferation per unit area, and sternness improvement and differentiation inhibition of LSCs. Accordingly, an experiment was conducted to confirm whether the same effects as described above would be obtained, even when limbal epithelial cells were dissociated according to the method described in Example 1-3, and cultured as single cells. To this end, the limbal explant outgrowth cells according to the method described in Example 1-2 and the cells proliferated from the limbal epithelial cells according to the method described in Example 1-3 were harvested, and each type of cells was subjected to FACS analysis to measure a JC1^low ratio.
Based on the results of Example 6-1, cells cultured by the same method as described above were recovered to measure viable cell counts, yields of the limbal epithelial cells were measured.

SMILES	stained outgrowth area (human limbal explant)	cell yields (human limbal explant)	outgrowth proliferation rates of the explant (human limbal explant)	Cell count, Mean (human limbal explant)	% JC1^low, Mean [1] [%]	JC1 exclusion cell cohort (JC1^low) [1] [%]	percentage in a lower left quadrant (LLQ) [1] [%]	expression of the differentiation marker Krt3 [2]	protein expression of LSC marker ABCG2 [2]	protein expression of LSC marker p63α [2]	colony forming efficiency (CFE) [3]	% JC1^low, Mean [4] [%]	Cell count, Mean [5]	cell yields (viable cell counts) ([5]; single cell culture of limbal tissues (FIG. 6))	cell density (human limbal explant; 10 μM IWP2, cells/mm^2, compared with control and CHIR99021 group (FIG. 2d))
Cc1c[nH]c(-c2cnc(NCCNc3ccc(C#N)cn3)nc2-c2ccc(Cl)cc2Cl)n1 [CHIR99021]	smaller area	significantly decreased	sequentially decreased	0.8 1 × 10^5	6.4	10.9±1.3	50.7±10.1	increased	remarkably decreased	remarkably decreased	remarkably lower CFE	23.9	7.0 1 × 10^5	very low	
Cc1ccc2nc(NC(=O)CSc3nc4c(c(=O)n3-c3ccccc3)SCC4)sc2c1 [IWP2, N-(6-Methyl-2-benzothiazolyl)-2-[(3,4,6,7-tetrahydro-4-oxo-3-phenylthieno[3,2-d]pyrimidin-2-yl)thio]-acetamide]	subsequently increased	no difference in cell yields	sequentially decreased	4.3 1 × 10^5	27.9	29.6±2.6	72.8±1.9	barely expressed	remarkably increased	remarkably increased	remarkably higher CFE	9.8	4.1 1 × 10^5		highest cell density

From patent US10894945B2, “Methods for improving proliferation and stemness of limbal stem cells” (CATHOLIC UNIVERSITY INDUSTRY ACADEMIC COOPERATION FOUNDATION, priority 2016, dated 2021)
